{
  "source": "patent US10829448B2",
  "about": "“Substituted benzoimidazoles as modulators of ROR-γ” (Vitae Pharmaceuticals, LLC, priority 2015, dated 2020)",
  "key": {"[1]": {"biological_target": "full-length RORγt in Jurkat cells (Homo sapiens (Human), UniProt P51449)", "sequence (P51449 other isoform, or with tags, fused parts or gaps)": "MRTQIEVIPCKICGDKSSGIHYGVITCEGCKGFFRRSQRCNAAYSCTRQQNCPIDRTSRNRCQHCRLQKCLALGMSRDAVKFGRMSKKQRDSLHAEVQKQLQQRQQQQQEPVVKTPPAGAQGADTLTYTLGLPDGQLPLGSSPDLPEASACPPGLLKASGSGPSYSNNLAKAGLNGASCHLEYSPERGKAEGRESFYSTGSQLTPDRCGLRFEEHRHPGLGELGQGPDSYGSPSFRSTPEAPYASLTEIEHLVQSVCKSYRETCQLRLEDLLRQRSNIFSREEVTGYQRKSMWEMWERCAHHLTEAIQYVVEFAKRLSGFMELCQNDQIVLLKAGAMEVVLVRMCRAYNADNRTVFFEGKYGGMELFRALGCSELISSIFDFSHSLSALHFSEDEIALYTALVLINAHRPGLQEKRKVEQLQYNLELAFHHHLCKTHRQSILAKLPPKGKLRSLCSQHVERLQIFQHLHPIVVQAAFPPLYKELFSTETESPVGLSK", "test": "RORγt 5×RORE Assay in Jurkat Cells (Assay 2)", "assay_type": "cell-based", "conditions": "RORγt 5×RORE Nanoluc luciferase reporter", "experimental": "[formula] RORγt 5×RORE Assay in Jurkat Cells (Assay 2)\nCompounds described herein were tested for RORγ inverse agonist activity in a cell-based, transcriptional activity assay. […] (Promega, Cat. # N1021) using KpnI and HindIII restriction sites. […] Tested compounds were added to the cells in the same media (final concentration of DMSO was 0.1% (v/v)), and the plates were incubated at 37° C./5% CO2 for 16-18 hrs. Luciferase activity in the conditioned supernatants was determined with NanoGlo® assay reagents (Promega, Cat. # N1130)."}, "[2]": {"biological_target": "recombinant RORγ Ligand Binding Domain (LBD) protein (Homo sapiens (Human), UniProt P51449)", "sequence (P51449 269-508)": "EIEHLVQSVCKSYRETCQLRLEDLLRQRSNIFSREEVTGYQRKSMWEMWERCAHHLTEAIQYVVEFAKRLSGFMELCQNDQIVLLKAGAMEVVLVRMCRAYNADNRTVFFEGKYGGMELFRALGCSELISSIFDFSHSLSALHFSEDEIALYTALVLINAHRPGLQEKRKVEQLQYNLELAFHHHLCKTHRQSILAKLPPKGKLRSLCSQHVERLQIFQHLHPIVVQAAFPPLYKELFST", "test": "Radio-Ligand RORγ Binding Assay (Assay 1)", "conditions": "competition with 25-hydroxy [26,27-3H]-cholesterol, SPA", "experimental": "Radio-Ligand RORγ Binding Assay (Assay 1)\nCompounds described herein were tested for ability to bind to RORγ in a cell-free competition assay with commercially available radio-ligand (RL), 25-hydroxy [26,27-^3H]-cholesterol (PerkinElmer, Cat. # NET674250UC), for a ligand binding site on a recombinant RORγ Ligand Binding Domain (LBD) protein expressed as a 6×His-Glutathione-S-Transferase (GST) fusion. […] The plate was shaken at 700 rpm for 20 min and incubated for 10 min at rt, after which 40 μL of poly-Lys YSi SPA beads (PerkinElmer, Cat. # RPNQ0010) were added to achieve 50 μg of the beads per well. The plate was incubated on an orbital shaker for 20 min and then for 10 min without agitation at rt. SPA signal for tritium beta radiation was registered on PerkinElmer Microbeta plate reader. […] The percent inhibition vs. concentration data were fit into a four-parameter model, and IC50 values were calculated from the fit as the concentrations corresponding to the inflection points on the dose-response curves."}},
  "data": [
    {"smiles": "CCS(=O)(=O)c1ccc([C@H](CO)NC(=O)c2ccc3c(c2)nc(C(=O)c2ccc(C(F)(F)F)cc2)n3C2CC2)cc1", "note": "[BE-61, (R)-1-cyclopropyl-N-(1-(4-(ethylsulfonyl)phenyl)-2-hydroxyethyl)-2-(4-(trifluoromethyl)benzoyl)-1H-benzo[d]imidazole-5-carboxamide]", "values": [
      {"measurement": "IC50", "setting": "[1]", "result": "< 100", "unit": "nM"},
      {"measurement": "Ki", "setting": "[2]", "result": "< 100", "unit": "nM"}
    ]},
    {"smiles": "CCS(=O)(=O)c1ccc([C@H](COC(N)=O)NC(=O)c2ccc3c(c2)nc(C[C@H]2CC[C@H](C(F)(F)F)CC2)n3C2CC2)cc1", "note": "[BE-66, (R)-2-(1-cyclopropyl-2-(((1r,4R)-4-(trifluoromethyl)cyclohexyl)methyl)-1H-benzo[d]imidazole-5-carboxamido)-2-(4-(ethylsulfonyl)phenyl)ethyl carbamate]", "values": [
      {"measurement": "IC50", "setting": "[1]", "result": "< 100", "unit": "nM"},
      {"measurement": "Ki", "setting": "[2]", "result": "< 100", "unit": "nM"}
    ]},
    {"smiles": "CCS(=O)(=O)c1ccc([C@@H](COC(N)=O)NC(=O)c2ccc3c(c2)nc(C[C@H]2CC[C@H](C(F)(F)F)CC2)n3C2CC2)cc1", "note": "[BE-67, (S)-2-(1-cyclopropyl-2-(((1r,4S)-4-(trifluoromethyl)cyclohexyl)methyl)-1H-benzo[d]imidazole-5-carboxamido)-2-(4-(ethylsulfonyl)phenyl)ethyl carbamate]", "values": [
      {"measurement": "IC50", "setting": "[1]", "result": "< 100", "unit": "nM"},
      {"measurement": "Ki", "setting": "[2]", "result": "< 100", "unit": "nM"}
    ]},
    {"smiles": "CCn1c(C[C@H]2CC[C@@H](C(F)(F)F)CC2)cc2cc(C(=O)NCc3ccc(S(=O)(=O)CC)cn3)ccc21", "note": "[IN-15.2, 1-ethyl-N-((5-(ethylsulfonyl)pyridin-2-yl)methyl)-2-(((1s,4s)-4-(trifluoromethyl)cyclohexyl)methyl)-1H-indole-5-carboxamide]", "values": [
      {"measurement": "IC50", "setting": "[1]", "result": "> 1000", "unit": "nM"},
      {"measurement": "Ki", "setting": "[2]", "result": "< 100", "unit": "nM"}
    ]},
    {"smiles": "CCn1c(C[C@H]2CC[C@@H](C(F)(F)F)CC2)cc2cc(C(=O)N[C@@H](CO)c3ccc(S(=O)(=O)CC)cc3)ccc21", "note": "[IN-16.2, 1-ethyl-N-((R)-1-(4-(ethylsulfonyl)phenyl)-2-hydroxyethyl)-2-(((1s,4S)-4-(trifluoromethyl)cyclohexyl)methyl)-1H-indole-5-carboxamide]", "values": [
      {"measurement": "IC50", "setting": "[1]", "result": "> 1000", "unit": "nM"},
      {"measurement": "Ki", "setting": "[2]", "result": "< 100", "unit": "nM"}
    ]},
    {"smiles": "CCn1c(C[C@H]2CC[C@@H](C(F)(F)F)CC2)cc2cc(C(=O)NCc3ccc(S(=O)(=O)CC)cc3)ccc21", "note": "[IN-17.2, 1-ethyl-N-(4-(ethylsulfonyl)benzyl)-2-(((1s,4s)-4-(trifluoromethyl)cyclohexyl)methyl)-1H-indole-5-carboxamide]", "values": [
      {"measurement": "IC50", "setting": "[1]", "result": "> 1000", "unit": "nM"},
      {"measurement": "Ki", "setting": "[2]", "result": "< 100", "unit": "nM"}
    ]}
  ]
}
